Assay results: patent US6346252B1, “Method of obtaining an antibacterial and/or antifungal extract from the algae, bonnemaisoniacea” (Algues et Mer (S.A.R.L.), priority 1996, dated 2002)

Tested on: Pseudomonas aeruginosa strain
Assay: embedding of 1 ml and 0.1 ml samples of mother solution in PCA medium
Format: cell-based
Settings: for bacteria count in embedding: PCA medium 48 hours, strain at 1.9 10^8, bromoform 60 mg/l
Protocol: In order to test that the antibacterial and/or antifungal action is in fact related to a group of halogenated molecules of low molecular weight, an aqueous solution of 60 mg/l bromoform was prepared and its action compared with that of a permeate of nanofiltration at the threshold of 400 Daltons which therefore only contained micromolecules, in particular halogenated molecules. After embedding 1 ml and 0.1 ml samples in a PCA medium for 48 hours from a mother solution containing the product to be tested and the Pseudomonas aeruginosa strain at a concentration of 1.9 10^8, the results in the following table were obtained.
In this table, and in the following tables, “>>” means that bacteria developed and could not be counted.
Also, the microfiltration permeate was fractionated by subjecting it to ultrafiltration (uF) or nanofiltration (nF), and the antibacterial action on the Pseudomonas strain was measured for each fraction and at different times in accordance with the protocol described below. The following results were obtained:
Other tests were conducted to measure the influence of pH on the extract's activity and its ageing. Acidification was carried out during the so-called acidification stage of the method for obtaining the extract of the invention, using citric acid.

BrC(Br)Br [Bromoform, bromoform]
bacteria count in embedding (0.1 ml embedding): >>
bacteria count in embedding (1 ml embedding): >>
action against the Pseudomonas aeruginosa strain (bromoform at 1.5 times the concentration in the extract, permeate on second day after production): no action
